What was measured:
[1] = DPPH radical scavenging activity; assay type: physicochemical; details: for antioxidant effects in the pharmacological range (in words): up to 50 μM
Method: The newly synthesized compounds were evaluated for 2,2-diphenyl-1-picrylhydrazyl […] free radical scavenging activity. The reduction and stabilization of DPPH by antioxidant compounds lead to discoloration, resulting in a decrease in absorbance at 517 nm, which was expressed as a percentage of the radical solution at a given concentration of discoloration. The heteroarylacrylonitrile derivatives were re-suspended in a minimum of DMSO at a final concentration of 5 mg/mL (stock solution). From these, they were diluted to concentrations of 1000, 500, and 100 μg/mL. These solutions were mixed with a methanol solution of DPPH (20 μg/mL) for 5 min. Each compound was evaluated in triplicate; absorbance at 517 nm in a UNICAM UV/visible spectrophotometer Helios-α (Thermo Electron Corporation, Waltham, MA USA) was measured by subtracting the solvent absorbance and comparing the resulting value with that of a blank sample. The percentage of discoloration was established according to the following formula: % Radical removal or discoloration = (1 − (AM − ABM)/AC) × 100, where AM is the absorbance of the sample compound, ABM is the absorbance of the sample blank, and AC is the absorbance of the control. The degree of discoloration indicates the efficacy of the compounds studied as free radical scavengers; therefore, a percentage of discoloration of 100 indicates the maximum radical scavenging capacity and a value close to 0 indicates a zero radical scavenging capacity. Quercetin was used as a reference compound in a concentration range of 1.25 to 7.5 μg/mL.

NADPH oxidase (NOX2) = target: T1, NADPH oxidase (NOX2) (Homo sapiens, UniProt P14598); experiment: NOX2 activity by cytochrome C reduction in HL-60 membrane preparations; assay type: biochemical; details: HL-60 membrane homogenates, increasing concentrations
T1 construct: HL-60 cells expressed the components of NOX2, including gp91, p22^phox, p47^phox, and p67^phox; endogenous in cells; whole cells in A1, membrane preparations in A3 and A4
T1 sequence (P14598 1-390): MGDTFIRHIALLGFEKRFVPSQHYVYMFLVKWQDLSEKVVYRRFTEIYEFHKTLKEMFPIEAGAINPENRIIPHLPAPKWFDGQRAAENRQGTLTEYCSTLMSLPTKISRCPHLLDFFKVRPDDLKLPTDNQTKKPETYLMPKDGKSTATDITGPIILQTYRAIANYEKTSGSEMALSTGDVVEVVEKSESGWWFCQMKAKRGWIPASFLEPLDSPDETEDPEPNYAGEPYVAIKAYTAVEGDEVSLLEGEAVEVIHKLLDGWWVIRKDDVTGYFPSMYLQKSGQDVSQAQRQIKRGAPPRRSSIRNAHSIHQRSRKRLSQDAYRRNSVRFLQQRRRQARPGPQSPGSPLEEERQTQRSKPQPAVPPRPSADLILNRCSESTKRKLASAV
Method: Neutrophil-differentiated HL-60 cells (2 × 10^6 cells/mL) […], then PMA 0.8 μM was added and incubated for 1 h to induce the activation of the enzyme NADPH oxidase. As a positive inhibition control, VAS2870 (20 μM) was used. Another two controls were performed: one with cells activated by PMA in the presence of DMSO, and the other (NA, non-activated) with cells in the absence of PMA and the acrylonitrile compounds. In 15 mL conical tubes, 5 mL of cell suspension from each treatment and control condition was transferred at 2 × 10^6 cells/mL and centrifuged at 1000 rpm at 4 °C for 10 min. […]
The membrane preparations from the neutrophil-differentiated HL-60 cells, treated with the different indole heteroaryl-acrylonitrile derivatives, were re-suspended in PBS with 10 μL/mL of the protease inhibitor cocktail (in mM): 104 (4-(2-aminoethyl)benzenesulfonylfluoride hydrochloride); 1.4 N-(trans-epoxysuccinyl)-L-leucine-4-guanidinobutyric; 2 leupeptin hemisulfate; 4 bestatin hydrochloride; 1.5 pepstatin A; and 80 μM aprotinin. Total proteins were quantified by the bicinchoninic acid (BCA) method using the commercial kit BCA™ (Thermo Scientific Pierce™, Rockford, IL, USA), using BSA as a standard. […] The reaction was monitored at 550 nm for 30 min at 25 °C using PBS as a blank.

Structure (SMILES) | antioxidant capacity, DPPH discoloration (in words) [1] | antioxidant effects in the pharmacological range (in words) [1] | superoxide production, cytochrome C reduction (in words) (NADPH oxidase (NOX2)) | antioxidant capacity, DPPH discoloration ([1]; concentration range 30–300 μM) [%]
N#C/C(=C\c1cc(-c2ccccc2)on1)C(=O)c1c[nH]c2ccccc12 [Compound C6] | showed antioxidant capacity only at very high concentrations | minimal | reduced superoxide production in a concentration-dependent manner | 
N#C/C(=C\c1ccncc1)C(=O)c1c[nH]c2ccccc12 [Compound C14] | showed antioxidant capacity only at very high concentrations | minimal | reduced superoxide production in a concentration-dependent manner | 12

Source: PMC10376059, “New NADPH Oxidase 2 Inhibitors Display Potent Activity against Oxidative Stress by Targeting p22^phox-p47^phox Interactions” (Antioxidants, 2023)
